Assays:
ZSF1 obese rats [1] = experiment: Oral glucose tolerance test (OGTT) and fasting glucose in ZSF1 rats at week 10; assay type: in vivo, rat; settings: enalapril 3 mpk
Protocol: Male ZSF1 rats (body weight 400-430 grams (lean control) and 500-605 grams (obese) at baseline) were used for this study. All animals were housed in a room under controlled conditions of temperature (72±8° F.), relative humidity of 30-70% and a 12-hour light-dark cycle (lights on at 6:00 AM and off at 6:00 PM) at a fully AAALAC accredited, USDA registered and OLAW assured laboratory animal research facility. All animals were allowed free access to rodent chow (Purina 5008+/−test articles) and water (+/−enalapril).
(§1) Blood and 24-hour urine samples were obtained from all animals at day 0 (15 weeks of age; prior to the initiation of enalapril treatment). Animals in Groups 3, 7, 8 and 9 were placed on drinking water containing enalapril and kept on Purina 5008 rodent chow (C13000). Animals in Group 1, 2, 4, 5 and 6 were kept on Purina 5008 rodent chow and drinking water. Ten days after the initiation of enalapril treatment, blood and 24-hour urine samples were collected from all animals. After day 10 blood and urine collections, animals in Groups 4, 5 and 6 received Compound I at 1, 3 and 10 mg/kg/day, respectively for 11 weeks. In addition to enalapril treatment, animals in Groups 7, 8 and 9 received Compound I at 1, 3 and 10 mg/kg/day, respectively for an additional 11 weeks.
(§2) 10 weeks after the initiation of Compound I treatment, animals (27 weeks of age) were fasted for 18 hours. Serum samples were collected for the measurement of fasting insulin levels. Serum insulin levels were determined using the Rat Insulin ELISA kit (Cat #ELR-Insulin, RayBiotech, Inc.)
For OGTT, animals were given glucose solution (50% Dextrose) at 2 g/kg via oral gavage. Blood samples were collected prior to oral glucose administration (0 minute) and 30, 60, 90, 120 and 180 minutes after administration. Blood glucose levels were measured using a standard blood glucose monitoring system (AlphaTRAK). The blood glucose reading at time 0 (prior to glucose administration) corresponds to the fasting glucose measurement.
(§3) The data are expressed as mean±SEM. […] One-tailed tests were used for comparison of variables. Statistical significance is indicated by P values less than 0.05.

ZSF1 obese rats [2] = experiment: Fasting serum insulin in ZSF1 rats (Rat Insulin ELISA); assay type: in vivo; settings: week 10, enalapril 3 mpk
From the text: as §1, §2, §3

ZSF1 obese rats [3] = experiment: ZSF1 rat study: serum clinical chemistry (cholesterol, triglycerides), body weight, clinical observations; assay type: in vivo; settings: ZSF1 obese rats; enalapril 3 mg/kg/day; Animal #8; 3 days after initiation
From the text: as §1
Body weight and 24-hour water intake were obtained at least once every other week. 24-hour food intake was measured at baseline and week 8.
Plasma (for biomarker) and serum (for clinical chemistry analysis) samples were collected from all treatment groups at baseline, day 10, weeks 5 and 9 prior to placing the animals into the metabolic cages. Plasma samples were obtained from Groups 3-9 for measurement of compound exposure levels at weeks 5 and 11. Terminal plasma and serum samples were obtained at necropsy.
For serum samples, blood was collected in serum separator tubes, maintained at room temperature for at least 30 minutes and then centrifuged at 6000 rpm for 10 minutes. Serum samples were stored at −80° C. until analysis. Urine and serum samples were analyzed using the Randox Daytona Clinical Chemistry Analyzer. All measurements were performed in accordance with manufacturer's instructions.
Animal #8 (in Group 3, ZSF1—enalapril 3 mg/kg/day) was found dead 3 days after the initiation of enalapril treatment.

SMILES: CCOC(=O)[C@H](CCc1ccccc1)N[C@@H](C)C(=O)N1CCC[C@H]1C(=O)O [enalapril, reference compound]
- Fasting Blood Glucose (0 minute) (ZSF1 obese rats [1]): 255 ± 13 mg/dL
- OGTT Area Under Curve (AUC) (ZSF1 obese rats [1]): 84459 ± 1409
- OGTT Blood Glucose 120 minutes (ZSF1 obese rats [1]): 452 ± 10 mg/dL
- OGTT Blood Glucose 180 minutes (ZSF1 obese rats [1]): 435 ± 9 mg/dL
- Fasting Insulin (ZSF1 obese rats [2]): 11.4 ± 1.7 μIU/mL
- clinical observation (ZSF1 obese rats [3]): found dead

From patent publication US11389449B2, “Treatment of metabolic syndrome with an sGC stimulator” (Cyclerion Therapeutics, Inc., priority 2017, dated 2022)
